{"source": "patent US9217139B2", "about": "“Extracellularly secreted nuclease” (JAPAN AGENCY FOR MARINE-EARTH SCIENCE AND TECHNOLOGY, priority 2010, dated 2015)", "key": {"NucS": {"tested_on": "NucS", "type": "biochemical, Streptomyces sp. MBE174", "method": "(§1) In this case, 1 U represents an amount of enzymes necessary to increase the absorbancy of 260 nm by one for 30 minutes when the enzymes works on the following as substrate: Salmon sperm DNA 1 mg/mL (manufactured by Invitrogen; Cat no. 15632-011).\n(§2) NucS and NucL were kept in contact with the compounds listed in Table 3 on an ice bath for one hour, and then, the enzyme activity was measured by the standard specific activity measurement method (referring to Table 3). […] Incidentally, poorly water-soluble compounds were dissolved in dimethyl sulfoxide, and then added to an enzyme solution. The final concentration of dimethyl sulfoxide after addition was 5 percent. The activity in the presence of 5 percent of dimethyl sulfoxide was regarded as being 100 percent."}, "NucL": {"tested_on": "NucL", "type": "biochemical, Streptomyces sp. MBE174", "details": "for effect of the chemical substance on NucL activity (in words): summary of Table 3", "method": "as §1, §2"}, "Salmon sperm DNA": {"tested_on": "Salmon sperm DNA", "experiment": "standard specific activity measurement method (increase of absorbancy at 260 nm)", "type": "biochemical", "details": "fraction after each purification step of NucS (Table 1)", "method": "The specific activity of NucS was measured at 37 degrees Celsius in 20 mM of Tris/HCl at pH 8.5 that contains 1 mM of MgCl2 and 1 mM of CaCl2 (a measurement method under the condition described here is also referred to as a standard specific activity measurement method, hereinafter); the specific activity was 3.6×10^6 U/mg-protein, which was a very high level of specific activity. In this case, 1 U represents an amount of enzymes necessary to increase the absorbancy of 260 nm by one for 30 minutes when the enzymes works on the following as substrate: Salmon sperm DNA 1 mg/mL (manufactured by Invitrogen; Cat no. 15632-011). As a reference, as for NucS, when the specific activity of Benzonase (Registered Trademark), which was a commercially available nucleolytic enzyme that had the highest specific activity among those listed in a brochure, was measured under the conditions described in the brochure (37 degrees Celsius) with the use of the same substrate; the specific activity was 9.4×10^5 U/mg-protein. As a result, it became clear that the specific activity of NucS is about 3.8 times higher than that of Benzonase.\nThe specific activity of NucL was 5.6×10^4 U/mg-protein at 37 degrees Celsius in 20 mM of Tris/HCl at pH 8.5 that contains 1 mM of MgCl2 and 1 mM of CaCl2. The isoelectric point was measured by using Novex (Registered Trademark) IEF pH-3-10 gel (manufactured by Invitrogen); and then pl was 7.0. Then, it was determined that a N-terminal amino acid sequence of the purified enzyme was DSVRIHDIQGTTR. The sequence matched 12 out of 13 amino acids of putative protein (putative secreted hydrolase) coded on a genome of Streptomyces scabiei 87.22, and of putative protein (large secreted protein) coded on a genome of S. avermitilis MA-4680."}, "[1]": {"details": "chemical at 1.0 mM, contact on ice bath one hour, additive-free = 100"}, "[2]": {"details": "chemical at 5.0 mM, contact on ice bath one hour, additive-free = 100"}, "[3]": {"details": "chemical at 0.1 mM, contact on ice bath one hour, additive-free = 100"}, "[4]": {"details": "chemical at 1.0%, contact on ice bath one hour, additive-free = 100"}, "[5]": {"details": "chemical at 10.0%, contact on ice bath one hour, additive-free = 100"}, "[6]": {"details": "chemical at 20.0%, contact on ice bath one hour, additive-free = 100"}, "[7]": {"details": "chemical at 0.1%, contact on ice bath one hour, additive-free = 100"}, "[8]": {"details": "chemical at 2.0M, contact on ice bath one hour, additive-free = 100"}, "[9]": {"details": "chemical at 4.0M, contact on ice bath one hour, additive-free = 100"}, "[10]": {"details": "chemical at 6.0M, contact on ice bath one hour, additive-free = 100"}}, "note": "“And” between values parts separate entries of the source, which are not always exact repeats. Identical values can stand only once. Like-named read-outs stand apart in the source and are kept apart here.", "data": [{"compound": "O[C@H](CS)[C@H](O)CS", "note": "(racemic) [Dithiothreitol]", "values": [{"measurement": "Relative activity of NucS (%)", "setting": "NucS; [1]", "result": 105, "unit": "%"}, {"measurement": "Relative activity of NucS (%)", "setting": "NucS; [2]", "result": 104, "unit": "%"}, {"measurement": "Relative activity of NucL (%)", "setting": "NucL; [1]", "result": 89, "unit": "%"}, {"measurement": "Relative activity of NucL (%)", "setting": "NucL; [2]", "result": 89, "unit": "%"}]}, {"compound": "[Cl][Cu][Cl]", "note": "[CuCl2]", "values": [{"measurement": "Relative activity of NucS (%)", "setting": "NucS; [3]", "result": 111, "unit": "%"}, {"measurement": "Relative activity of NucS (%)", "setting": "NucS; [1]", "result": 3, "unit": "%"}, {"measurement": "effect of the chemical substance on NucS activity (in words)", "setting": "NucS; summary of Table 3", "result": "strongly inhibited"}, {"measurement": "Relative activity of NucL (%)", "setting": "NucL; [3]", "result": 96, "unit": "%"}, {"measurement": "Relative activity of NucL (%)", "setting": "NucL; [1]", "result": 9, "unit": "%"}, {"measurement": "effect of the chemical substance on NucL activity (in words)", "setting": "NucL", "result": "strongly inhibited"}]}, {"compound": "CN(C)C=O", "note": "[Dimethyl formamide]", "values": [{"measurement": "Relative activity of NucS (%)", "setting": "NucS; [4]", "result": 91, "unit": "%"}, {"measurement": "Relative activity of NucS (%)", "setting": "NucS; [5]", "result": 118, "unit": "%"}, {"measurement": "Relative activity of NucS (%)", "setting": "NucS; [6]", "result": 117, "unit": "%"}, {"measurement": "effect of the chemical substance on NucS activity (in words)", "setting": "NucS; summary of Table 3", "result": "high resistance"}, {"measurement": "Relative activity of NucL (%)", "setting": "NucL; [4]", "result": 99, "unit": "%"}, {"measurement": "Relative activity of NucL (%)", "setting": "NucL; [5]", "result": 74, "unit": "%"}, {"measurement": "Relative activity of NucL (%)", "setting": "NucL; [6]", "result": 56, "unit": "%"}]}, {"compound": "C[S+](C)[O-]", "note": "[Dimethyl sulfoxide]", "values": [{"measurement": "Relative activity of NucS (%)", "setting": "NucS; [4]", "result": 110, "unit": "%"}, {"measurement": "Relative activity of NucS (%)", "setting": "NucS; [5]", "result": 116, "unit": "%"}, {"measurement": "Relative activity of NucS (%)", "setting": "NucS; [6]", "result": 113, "unit": "%"}, {"measurement": "effect of the chemical substance on NucS activity (in words)", "setting": "NucS; summary of Table 3", "result": "high resistance"}, {"measurement": "Relative activity of NucL (%)", "setting": "NucL; [4]", "result": 105, "unit": "%"}, {"measurement": "Relative activity of NucL (%)", "setting": "NucL; [5]", "result": 75, "unit": "%"}, {"measurement": "Relative activity of NucL (%)", "setting": "NucL; [6]", "result": 40, "unit": "%"}]}, {"compound": "O=C(O)CN(CCN(CC(=O)O)CC(=O)O)CC(=O)O", "note": "[Ethylenediaminetetraacetic acid]", "values": [{"measurement": "Relative activity of NucS (%)", "setting": "NucS", "result": 0, "unit": "%"}, {"measurement": "effect of the chemical substance on NucS activity (in words)", "setting": "NucS", "result": "strongly inhibited"}, {"measurement": "Relative activity of NucL (%)", "setting": "NucL; [2]", "result": 0, "unit": "%"}, {"measurement": "Relative activity of NucL (%)", "setting": "NucL; chemical at 10.0 mM, contact on ice bath one hour, additive-free = 100", "result": 0, "unit": "%"}, {"measurement": "effect of the chemical substance on NucL activity (in words)", "setting": "NucL", "result": "strongly inhibited"}]}, {"compound": "O=C(O)CI", "note": "[Iodoacetic acid]", "values": [{"measurement": "Relative activity of NucS (%)", "setting": "NucS", "result": "103% and 96%"}, {"measurement": "Relative activity of NucL (%)", "setting": "NucL", "result": "102% and 97%"}]}, {"compound": "OCCS", "note": "[Melcaptoethanol]", "values": [{"measurement": "Relative activity of NucS (%)", "setting": "NucS; [1]", "result": 112, "unit": "%"}, {"measurement": "Relative activity of NucS (%)", "setting": "NucS; [2]", "result": 116, "unit": "%"}, {"measurement": "Relative activity of NucL (%)", "setting": "NucL; [1]", "result": 89, "unit": "%"}, {"measurement": "Relative activity of NucL (%)", "setting": "NucL; [2]", "result": 92, "unit": "%"}]}, {"compound": "O=C(O)c1cc[c]([Hg][Cl])cc1", "note": "[Parachloro mercury benzoate]", "values": [{"measurement": "Relative activity of NucS (%)", "setting": "NucS; [3]", "result": 92, "unit": "%"}, {"measurement": "Relative activity of NucS (%)", "setting": "NucS; [1]", "result": 94, "unit": "%"}, {"measurement": "Relative activity of NucL (%)", "setting": "NucL; [3]", "result": 108, "unit": "%"}, {"measurement": "Relative activity of NucL (%)", "setting": "NucL; [1]", "result": 91, "unit": "%"}]}, {"compound": "O=S(=O)(F)Cc1ccccc1", "note": "[Phenylmethanesulfonyl fluoride]", "values": [{"measurement": "Relative activity of NucS (%)", "setting": "NucS; [1]", "result": 85, "unit": "%"}, {"measurement": "Relative activity of NucS (%)", "setting": "NucS; [2]", "result": 87, "unit": "%"}, {"measurement": "Relative activity of NucL (%)", "setting": "NucL; [1]", "result": 111, "unit": "%"}, {"measurement": "Relative activity of NucL (%)", "setting": "NucL; [2]", "result": 99, "unit": "%"}]}, {"compound": "CCCCCCCCCCCCOS(=O)(=O)[O-].[Na+]", "note": "[SDS]", "values": [{"measurement": "Relative activity of NucS (%)", "setting": "NucS; [7]", "result": 85, "unit": "%"}, {"measurement": "Relative activity of NucS (%)", "setting": "NucS; [4]", "result": 0, "unit": "%"}, {"measurement": "Relative activity of NucL (%)", "setting": "NucL; [7]", "result": 89, "unit": "%"}, {"measurement": "Relative activity of NucL (%)", "setting": "NucL; [4]", "result": 121, "unit": "%"}, {"measurement": "effect of the chemical substance on NucL activity (in words)", "setting": "NucL", "result": "high resistance"}]}, {"compound": "NC(N)=O", "note": "[Urea]", "values": [{"measurement": "Relative activity of NucS (%)", "setting": "NucS; [8]", "result": 125, "unit": "%"}, {"measurement": "Relative activity of NucS (%)", "setting": "NucS; [9]", "result": 126, "unit": "%"}, {"measurement": "Relative activity of NucS (%)", "setting": "NucS; [10]", "result": 92, "unit": "%"}, {"measurement": "Relative activity of NucL (%)", "setting": "NucL; [8]", "result": 64, "unit": "%"}, {"measurement": "Relative activity of NucL (%)", "setting": "NucL; [9]", "result": 55, "unit": "%"}, {"measurement": "Relative activity of NucL (%)", "setting": "NucL; [10]", "result": 43, "unit": "%"}]}, {"compound": "[Cl-].[Cl-].[Zn+2]", "note": "[ZnCl2]", "values": [{"measurement": "Relative activity of NucS (%)", "setting": "NucS; [3]", "result": 3, "unit": "%"}, {"measurement": "Relative activity of NucS (%)", "setting": "NucS; [1]", "result": 0, "unit": "%"}, {"measurement": "effect of the chemical substance on NucS activity (in words)", "setting": "NucS; summary of Table 3", "result": "strongly inhibited"}, {"measurement": "Relative activity of NucL (%)", "setting": "NucL; [3]", "result": 1, "unit": "%"}, {"measurement": "Relative activity of NucL (%)", "setting": "NucL; [1]", "result": 0, "unit": "%"}, {"measurement": "effect of the chemical substance on NucL activity (in words)", "setting": "NucL", "result": "strongly inhibited"}]}, {"compound": "Hydroxyapatite", "values": [{"measurement": "Specific activity (U/mg)", "setting": "Salmon sperm DNA", "result": 38596, "unit": "U/mg"}]}, {"compound": "Triton X", "values": [{"measurement": "Relative activity of NucS (%)", "setting": "NucS; [7]", "result": 115, "unit": "%"}, {"measurement": "Relative activity of NucS (%)", "setting": "NucS; [4]", "result": 108, "unit": "%"}, {"measurement": "Relative activity of NucL (%)", "setting": "NucL; [7]", "result": 137, "unit": "%"}, {"measurement": "Relative activity of NucL (%)", "setting": "NucL; [4]", "result": 128, "unit": "%"}]}]}
